Source: ChEMBL document CHEMBL1201862, “PubChem BioAssay data set” (2004)
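In this assay, cells in 96-well plates receive the compound at five concentrations for 48 hours. Endpoints are linearly interpolated between the surrounding concentrations. GI50: concentration for 50% inhibition of growth.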 Activity calls are given as the source filed them. Rule as the data show it: active = GI50 up to about 1.1 µM and inactive = higher.

How the values were obtained:
Experiment in all cases: NCI tumour cell line growth inhibition, 48 h
[1] = test system: 786-0
[2] = test system: A498
[3] = test system: A549
[4] = test system: ACHN
[5] = test system: BT-549
[6] = test system: CAKI-1
[7] = test system: CCRF-CEM
[8] = test system: COLO 205
[9] = test system: DU-145
[10] = test system: EKVX
[11] = test system: HCC 2998
[12] = test system: HCT-116
[13] = test system: HCT-15
[14] = test system: HL-60
[15] = test system: HOP-62
[16] = test system: HT-29
[17] = test system: Hs-578T
[18] = test system: IGROV-1
[19] = test system: K562
[20] = test system: KM12
[21] = test system: LOX IMVI
[22] = test system: M14
[23] = test system: MCF7
[24] = test system: MDA-MB-231
[25] = test system: MDA-MB-435
[26] = test system: MDA-N
[27] = test system: MOLT-4
[28] = test system: Malme-3M
[29] = test system: NCI-H226
[30] = test system: NCI-H23
[31] = test system: NCI-H460
[32] = test system: NCI-H522
[33] = test system: NCI/ADR-RES
[34] = test system: OVCAR-3
[35] = test system: OVCAR-4
[36] = test system: OVCAR-5
[37] = test system: OVCAR-8
[38] = test system: PC-3
[39] = test system: RPMI-8226
[40] = test system: RXF 393
[41] = test system: SF-268
[42] = test system: SF-295
[43] = test system: SF-539
[44] = test system: SK-MEL-28
[45] = test system: SK-MEL-2
[46] = test system: SK-MEL-5
[47] = test system: SK-OV-3
[48] = test system: SN12C
[49] = test system: SNB-19
[50] = test system: SNB-75
[51] = test system: SR
[52] = test system: SW-620
[53] = test system: T47D
[54] = test system: TK-10
[55] = test system: U-251
[56] = test system: UACC-257
[57] = test system: UACC-62
[58] = test system: UO-31

CN1CN(c2ccccc2)C2(CCN(CCCSc3ccccc3NC(=O)/C=C/c3ccccc3)CC2)C1=O
GI50 [1]: 7.03 µM (inactive)
GI50 [2]: 2.75 µM (inactive)
GI50 [3]: 6.93 µM (inactive)
GI50 [4]: 2.4 µM (inactive)
GI50 [5]: 2.54 µM (inactive)
GI50 [6]: 9.91 µM (inactive)
GI50 [7]: 2.93 µM (inactive)
GI50 [8]: 2.01 µM (inactive)
GI50 [9]: 3.82 µM (inactive)
GI50 [10]: 4.98 µM (inactive)
GI50 [11]: 4.84 µM (inactive)
GI50 [12]: 2.5 µM (inactive)
GI50 [13]: 6.92 µM
GI50 [14]: 3.95 µM (inactive)
GI50 [15]: 2.83 µM (inactive)
GI50 [16]: 2.29 µM (inactive)
GI50 [17]: 3.41 µM (inactive)
GI50 [18]: 2.86 µM (inactive)
GI50 [19]: 3.85 µM (inactive)
GI50 [20]: 4.59 µM (inactive)
GI50 [21]: 2.25 µM (inactive)
GI50 [22]: 1.71 µM (inactive)
GI50 [23]: 13 µM (inactive)
GI50 [24]: 1.73 µM (inactive)
GI50 [25]: 2.61 µM (inactive)
GI50 [26]: 2.57 µM (inactive)
GI50 [27]: 2 µM (inactive)
GI50 [28]: 2.15 µM (inactive)
GI50 [29]: 2.24 µM (inactive)
GI50 [30]: 4.61 µM (inactive)
GI50 [31]: 4.05 µM (inactive)
GI50 [32]: 17.3 µM (inactive)
GI50 [33]: 3.87 µM (inactive)
GI50 [34]: 3.18 µM (inactive)
GI50 [35]: 3.59 µM (inactive)
GI50 [36]: 22.6 µM (inactive)
GI50 [37]: 6.19 µM (inactive)
GI50 [38]: 5.45 µM (inactive)
GI50 [39]: 1.89 µM (inactive)
GI50 [40]: 7.55 µM (inactive)
GI50 [41]: 4.21 µM (inactive)
GI50 [42]: 3.3 µM (inactive)
GI50 [43]: 2.88 µM (inactive)
GI50 [44]: 2.11 µM (inactive)
GI50 [45]: 2.58 µM (inactive)
GI50 [46]: 3.55 µM (inactive)
GI50 [47]: 5.92 µM (inactive)
GI50 [48]: 3.39 µM (inactive)
GI50 [49]: 5.27 µM (inactive)
GI50 [50]: 5.52 µM (inactive)
GI50 [51]: 2.1 µM (inactive)
GI50 [52]: 6.25 µM (inactive)
GI50 [53]: 4.01 µM (inactive)
GI50 [54]: 8.39 µM (inactive)
GI50 [55]: 7.5 µM (inactive)
GI50 [56]: 1.78 µM (inactive)
GI50 [57]: 2.71 µM (inactive)
GI50 [58]: 2.99 µM (inactive)
